Test results taken from ChEMBL document CHEMBL3600303, “The N-Terminal T-T Motif of a Third-Generation HIV-1 Fusion Inhibitor Is Not Required for Binding Affinity and Antiviral Activity” (J Med Chem, 2015).
The source made the active and inactive calls. No cut-off for these calls is given here.

What was measured:
[1] = system: Human immunodeficiency virus 1; assay: Antiviral activity against HIV1 NL4-3 pseudovirus infected in human TZM-bl cells assessed as inhibition of viral entry into cells after 48 hrs by single-cycle infection assay; type: functional, organism-based; details: Human immunodeficiency virus 1, NL4-3, TZM-bl
[2] = target: Envelope glycoprotein gp160 (Human immunodeficiency virus type 1 group M subtype B (isolate HXB2)(HIV-1)) (UniProt P04578); assay: Binding affinity to HIV-1 HXB2 gp41 N-terminal heptad repeat assessed as thermostability of compound after 30 mins by CD spectroscopic analysis; details: Human immunodeficiency virus 1
[3] = system: Human immunodeficiency virus 1; assay: Ratio of IC50 for ENF-resistant HIV1 NL4-3 harboring gp41 N-terminal heptad repeat V38A/N42T double mutant to IC50 for ENF-resistant HIV1 NL4-3 harboring gp41 N-terminal heptad repeat D36G mutant; type: functional
[4] = system: Human immunodeficiency virus 1; assay: Antiviral activity against ENF-resistant HIV1 NL4-3 harboring gp41 N-terminal heptad repeat N43K mutant infected in human TZM-bl cells assessed as inhibition of viral entry into cells after 48 hrs by single-cycle infection assay; type: functional, organism-based
[5] = system: Human immunodeficiency virus 1; assay: Ratio of IC50 for ENF-resistant HIV1 NL4-3 harboring gp41 N-terminal heptad repeat V38M mutant to IC50 for wild type HIV1 NL4-3; type: functional
[6] = system: Human immunodeficiency virus 1; assay: Ratio of IC50 for ENF-resistant HIV1 NL4-3 harboring gp41 N-terminal heptad repeat D36S/V38M double mutant to IC50 for ENF-resistant HIV1 NL4-3 harboring gp41 N-terminal heptad repeat D36G mutant; type: functional
[7] = system: Human immunodeficiency virus 1; assay: Antiviral activity against ENF-resistant HIV1 NL4-3 harboring gp41 N-terminal heptad repeat I37T/N43K double mutant infected in human TZM-bl cells assessed as inhibition of viral entry into cells after 48 hrs by single-cycle infection assay; type: functional, organism-based
[8] = system: Human immunodeficiency virus 1; assay: Ratio of IC50 for ENF-resistant HIV1 NL4-3 harboring gp41 N-terminal heptad repeat I37T/N43K double mutant to IC50 for wild type HIV1 NL4-3; type: functional
[9] = system: Human immunodeficiency virus 1; assay: Ratio of IC50 for ENF-resistant HIV1 NL4-3 harboring gp41 N-terminal heptad repeat V38A/N42T double mutant to IC50 for wild type HIV1 NL4-3; type: functional
[10] = system: Human immunodeficiency virus 1; assay: Ratio of IC50 for ENF-resistant HIV1 NL4-3 harboring gp41 N-terminal heptad repeat Q40H mutant to IC50 for ENF-resistant HIV1 NL4-3 harboring gp41 N-terminal heptad repeat D36G mutant; type: functional
[11] = system: Human immunodeficiency virus 1; assay: Antiviral activity against ENF-resistant HIV1 NL4-3 harboring gp41 N-terminal heptad repeat V38A mutant infected in human TZM-bl cells assessed as inhibition of viral entry into cells after 48 hrs by single-cycle infection assay; type: functional, organism-based
[12] = system: Human immunodeficiency virus 1; assay: Ratio of IC50 for ENF-resistant HIV1 NL4-3 harboring gp41 N-terminal heptad repeat I37T mutant to IC50 for ENF-resistant HIV1 NL4-3 harboring gp41 N-terminal heptad repeat D36G mutant; type: functional
[13] = system: Human immunodeficiency virus 1; assay: Antiviral activity against ENF-resistant HIV1 NL4-3 harboring gp41 N-terminal heptad repeat Q40H mutant infected in human TZM-bl cells assessed as inhibition of viral entry into cells after 48 hrs by single-cycle infection assay; type: functional, organism-based
[14] = system: Human immunodeficiency virus 1; assay: Ratio of IC50 for ENF-resistant HIV1 NL4-3 harboring gp41 N-terminal heptad repeat V38A mutant to IC50 for wild type HIV1 NL4-3; type: functional
[15] = system: Human immunodeficiency virus 1; assay: Ratio of IC50 for ENF-resistant HIV1 NL4-3 harboring gp41 N-terminal heptad repeat N43K mutant to IC50 for ENF-resistant HIV1 NL4-3 harboring gp41 N-terminal heptad repeat D36G mutant; type: functional
[16] = system: Human immunodeficiency virus 1; assay: Ratio of IC50 for wild type HIV1 NL4-3 to IC50 for ENF-resistant HIV1 NL4-3 harboring gp41 N-terminal heptad repeat D36G mutant; type: functional
[17] = system: Human immunodeficiency virus 1; assay: Antiviral activity against wild type HIV1 NL4-3 infected in human TZM-bl cells assessed as inhibition of viral entry into cells after 48 hrs by single-cycle infection assay; type: functional, organism-based; details: Human immunodeficiency virus 1, NL4-3, TZM-bl
[18] = system: Human immunodeficiency virus 1; assay: Ratio of IC50 for ENF-resistant HIV1 NL4-3 harboring gp41 N-terminal heptad repeat V38A mutant to IC50 for ENF-resistant HIV1 NL4-3 harboring gp41 N-terminal heptad repeat D36G mutant; type: functional
[19] = system: Human immunodeficiency virus 1; assay: Ratio of IC50 for ENF-resistant HIV1 NL4-3 harboring gp41 N-terminal heptad repeat V38M mutant to IC50 for ENF-resistant HIV1 NL4-3 harboring gp41 N-terminal heptad repeat D36G mutant; type: functional
[20] = system: Human immunodeficiency virus 1; assay: Ratio of IC50 for ENF-resistant HIV1 NL4-3 harboring gp41 N-terminal heptad repeat I37T/N43K double mutant to IC50 for ENF-resistant HIV1 NL4-3 harboring gp41 N-terminal heptad repeat D36G mutant; type: functional
[21] = system: Human immunodeficiency virus 1; assay: Antiviral activity against ENF-resistant HIV1 NL4-3 harboring gp41 N-terminal heptad repeat V38M mutant infected in human TZM-bl cells assessed as inhibition of viral entry into cells after 48 hrs by single-cycle infection assay; type: functional, organism-based
[22] = system: Human immunodeficiency virus 1; assay: Ratio of IC50 for ENF-resistant HIV1 NL4-3 harboring gp41 N-terminal heptad repeat D36S/V38M double mutant to IC50 for wild type HIV1 NL4-3; type: functional
[23] = system: Human immunodeficiency virus 1; assay: Antiviral activity against ENF-resistant HIV1 NL4-3 harboring gp41 N-terminal heptad repeat D36S/V38M double mutant infected in human TZM-bl cells assessed as inhibition of viral entry into cells after 48 hrs by single-cycle infection assay; type: functional, organism-based
[24] = system: Human immunodeficiency virus 1; assay: Ratio of IC50 for ENF-resistant HIV1 NL4-3 harboring gp41 N-terminal heptad repeat Q40H mutant to IC50 for wild type HIV1 NL4-3; type: functional
[25] = system: Human immunodeficiency virus 1; assay: Ratio of IC50 for ENF-resistant HIV1 NL4-3 harboring gp41 N-terminal heptad repeat D36G mutant to IC50 for wild type HIV1 NL4-3; type: functional
[26] = system: Human immunodeficiency virus 1; assay: Ratio of IC50 for ENF-resistant HIV1 NL4-3 harboring gp41 N-terminal heptad repeat N43K mutant to IC50 for wild type HIV1 NL4-3; type: functional
[27] = system: Human immunodeficiency virus 1; assay: Antiviral activity against ENF-resistant HIV1 NL4-3 harboring gp41 N-terminal heptad repeat I37T mutant infected in human TZM-bl cells assessed as inhibition of viral entry into cells after 48 hrs by single-cycle infection assay; type: functional, organism-based
[28] = system: Human immunodeficiency virus 1; assay: Ratio of IC50 for ENF-resistant HIV1 NL4-3 harboring gp41 N-terminal heptad repeat I37T mutant to IC50 for wild type HIV1 NL4-3; type: functional
[29] = system: Human immunodeficiency virus 1; assay: Antiviral activity against ENF-resistant HIV1 NL4-3 harboring gp41 N-terminal heptad repeat D36G mutant infected in human TZM-bl cells assessed as inhibition of viral entry into cells after 48 hrs by single-cycle infection assay; type: functional, organism-based
[30] = system: Human immunodeficiency virus 1; assay: Antiviral activity against ENF-resistant HIV1 NL4-3 harboring gp41 N-terminal heptad repeat V38A/N42T double mutant infected in human TZM-bl cells assessed as inhibition of viral entry into cells after 48 hrs by single-cycle infection assay; type: functional, organism-based
[31] = system: Human immunodeficiency virus 1; assay: Antiviral activity against wild type HIV1 NL4-3 infected in human TZM-bl cells assessed as inhibition of viral replication after 2 days by luciferase reporter gene assay; type: functional, organism-based; details: Human immunodeficiency virus 1, NL4-3, TZM-bl, 48 h
[32] = target: Envelope glycoprotein gp160 (Human immunodeficiency virus type 1 group M subtype B (isolate HXB2)(HIV-1)) (UniProt P04578); assay: Binding affinity to HIV-1 HXB2 gp41 N-terminal heptad repeat assessed as thermostability of compound at 10 uM after 30 mins by CD spectroscopic analysis; details: Human immunodeficiency virus 1
[33] = system: Human immunodeficiency virus 1; assay: Antiviral activity against HIV-1 ZM214M.15 pseudovirus infected in human TZM-bl cells assessed as inhibition of viral entry into cells after 48 hrs by single-cycle infection assay; type: functional, organism-based; details: Human immunodeficiency virus 1, ZM214M.15, TZM-bl
[34] = system: Human immunodeficiency virus 1; assay: Antiviral activity against HIV-1 SC42261.8 pseudovirus infected in human TZM-bl cells assessed as inhibition of viral entry into cells after 48 hrs by single-cycle infection assay; type: functional, organism-based; details: Human immunodeficiency virus 1, SC42261.8, TZM-bl
[35] = system: Serum; assay: Metabolic stability in Sprague-Dawley rat serum at 4 mg/kg, ip measured at 0.5 to 4 hrs post dose; type: ADME, organism-based; details: in vivo
[36] = target: Envelope glycoprotein gp160 (Human immunodeficiency virus type 1 group M subtype B (isolate HXB2)(HIV-1)) (UniProt P04578); assay: Binding affinity to HIV-1 HXB2 gp41 N-terminal heptad repeat assessed as increase in 6-helix bundle thermostability at 10 uM after 30 mins by CD spectroscopic analysis; details: Human immunodeficiency virus 1
[37] = system: Envelope glycoprotein gp160 (Human immunodeficiency virus 1), Q72502 [V38A]; assay: Binding affinity to HIV1 NL4-3 gp41 N-terminal heptad repeat V38A mutant after 30 mins by CD spectroscopic analysis
[38] = target: Envelope glycoprotein gp160 (Human immunodeficiency virus 1) (UniProt Q72502); assay: Binding affinity to HIV1 NL4-3 gp41 N-terminal heptad repeat G36D mutant after 30 mins by CD spectroscopic analysis
[39] = target: Envelope glycoprotein gp160 (Human immunodeficiency virus 1) (UniProt Q72502); assay: Binding affinity to HIV1 NL4-3 gp41 N-terminal heptad repeat N43K mutant after 30 mins by CD spectroscopic analysis
[40] = target: Envelope glycoprotein gp160 (Human immunodeficiency virus 1) (UniProt Q72502); assay: Binding affinity to HIV1 NL4-3 gp41 N-terminal heptad repeat V38A/N42T double mutant after 30 mins by CD spectroscopic analysis
[41] = target: Envelope glycoprotein gp160 (Human immunodeficiency virus 1) (UniProt Q72502); assay: Binding affinity to HIV1 NL4-3 gp41 N-terminal heptad repeat Q40H mutant after 30 mins by CD spectroscopic analysis
[42] = target: Envelope glycoprotein gp160 (Human immunodeficiency virus type 1 group M subtype B (isolate HXB2)(HIV-1)) (UniProt P04578); assay: Binding affinity to HIV-1 HXB2 gp41 N-terminal heptad repeat assessed as thermostability of protein-compound complex at 10 uM after 30 mins by CD spectroscopic analysis; details: Human immunodeficiency virus 1
[43] = target: Envelope glycoprotein gp160 (Human immunodeficiency virus 1) (UniProt Q72502); assay: Binding affinity to HIV1 NL4-3 gp41 N-terminal heptad repeat I37T/N43K double mutant after 30 mins by CD spectroscopic analysis
[44] = Thermostability of the compound in PBS assessed as melting temperature at 20 uM by CD spectroscopic analysis; type: physicochemical; details: buffer
[45] = target: Envelope glycoprotein gp160 (Human immunodeficiency virus 1) (UniProt Q72502); assay: Binding affinity to HIV1 NL4-3 gp41 N-terminal heptad repeat I37T mutant after 30 mins by CD spectroscopic analysis
[46] = system: Human immunodeficiency virus 1; assay: Antiviral activity against HIV-1 SF162 pseudovirus infected in human TZM-bl cells assessed as inhibition of viral entry into cells after 48 hrs by single-cycle infection assay; type: functional, organism-based; details: Human immunodeficiency virus 1, SF162, TZM-bl

H-TTWEAWDRAIAEYAARIEALIR-OH
IC50 [1]: 955 nM
Tm [2]: 59.1 °C

enfuvirtide
Ratio IC50 [3]: 247.3
IC50 [4]: 467 nM
Ratio IC50 [5]: 3
Ratio IC50 [6]: 26.4
IC50 [7]: > 2250 nM
Ratio IC50 [8]: >25
Ratio IC50 [9]: >25
Ratio IC50 [10]: 159.8
IC50 [11]: 709 nM
Ratio IC50 [12]: 68
IC50 [13]: 1450 nM
Ratio IC50 [14]: 7.9
Ratio IC50 [15]: 51.3
Ratio IC50 [16]: 9.9
IC50 [17]: 90.2 nM
Ratio IC50 [18]: 77.9
Ratio IC50 [19]: 29.4
Ratio IC50 [20]: 247.3
IC50 [21]: 268 nM
Ratio IC50 [22]: 2.7
IC50 [23]: 240 nM
Ratio IC50 [24]: 16.1
Ratio IC50 [25]: 0.1
Ratio IC50 [26]: 5.2
IC50 [27]: 618 nM
Ratio IC50 [28]: 6.9
IC50 [29]: 9.1 nM
IC50 [30]: > 2250 nM

H-TTWEEWDKKIEEYTKKIEELI-OH
IC50 [1]: 18.9 nM
IC50 [31]: 17.4 nM
Tm [32]: 66.2 °C

H-MTWEEWDKKIEEYTKKIEELIKKS-OH
IC50 [1]: 1.29 nM
IC50 [31]: 0.9 nM
Tm [32]: 78.2 °C

H-MTWEAWDRAIAEYAARIEALIRAAQEQQEKNEAALREL-OH
IC50 [33]: 0.74 nM
IC50 [34]: 1.65 nM
Stability [35]: Unstable
Activity [36]: Active
Activity [37]: Active
Activity [38]: Active
Activity [39]: Active
Activity [40]: Active
Activity [41]: Active
Tm [42]: 88.1 °C
Activity [43]: Active
IC50 [1]: 0.46 nM
Stability [44]: Stable
Activity [45]: Active
IC50 [31]: 0.25 nM
IC50 [46]: 4.98 nM
